Results taken from patent US10780090B2, “Heteroaryl compounds useful as inhibitors of SUMO activating enzyme” (Millennium Pharmaceuticals, Inc., priority 2014, dated 2020).

Target: recombinant human SAE enzyme (Homo sapiens (Human), UniProt Q9UBT2)
Assay: SAE HTRF enzyme assay
Type: biochemical
Details: for inhibition at 0.111 µM: read-out: Percent Inhibition
Outline: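 Sumoylation of Ubc9-GST by SAE was followed at low ATP (0.5 μM), pH 7.5, 24° C. for 105 min. Product was detected by HTRF with antibody pairs against Flag and GST tags.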

[1] = SAE inhibition at compound concentration 0.111 μM
[2] = SAE inhibition, class symbols, legend in nM

Chain of recombinant human SAE enzyme (Q9UBT2 whole entry): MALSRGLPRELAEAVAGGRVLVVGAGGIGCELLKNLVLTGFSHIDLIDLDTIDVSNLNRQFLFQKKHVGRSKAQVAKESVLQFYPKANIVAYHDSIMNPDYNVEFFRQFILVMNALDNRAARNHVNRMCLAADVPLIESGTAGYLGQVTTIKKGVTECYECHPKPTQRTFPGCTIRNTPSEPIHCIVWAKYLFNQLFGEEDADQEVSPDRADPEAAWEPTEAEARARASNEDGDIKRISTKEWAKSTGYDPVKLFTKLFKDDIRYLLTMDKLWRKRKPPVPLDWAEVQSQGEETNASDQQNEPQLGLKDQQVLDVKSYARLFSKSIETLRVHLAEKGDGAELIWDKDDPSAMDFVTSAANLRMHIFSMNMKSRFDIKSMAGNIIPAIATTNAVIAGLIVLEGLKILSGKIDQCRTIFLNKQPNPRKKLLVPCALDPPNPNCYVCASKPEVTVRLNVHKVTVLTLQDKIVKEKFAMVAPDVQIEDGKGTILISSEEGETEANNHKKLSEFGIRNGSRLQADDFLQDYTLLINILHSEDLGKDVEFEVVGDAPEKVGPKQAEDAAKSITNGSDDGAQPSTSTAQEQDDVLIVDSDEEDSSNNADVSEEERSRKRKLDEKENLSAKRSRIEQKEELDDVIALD
Chain of recombinant human SAE enzyme (Q9UBE0 whole entry partner): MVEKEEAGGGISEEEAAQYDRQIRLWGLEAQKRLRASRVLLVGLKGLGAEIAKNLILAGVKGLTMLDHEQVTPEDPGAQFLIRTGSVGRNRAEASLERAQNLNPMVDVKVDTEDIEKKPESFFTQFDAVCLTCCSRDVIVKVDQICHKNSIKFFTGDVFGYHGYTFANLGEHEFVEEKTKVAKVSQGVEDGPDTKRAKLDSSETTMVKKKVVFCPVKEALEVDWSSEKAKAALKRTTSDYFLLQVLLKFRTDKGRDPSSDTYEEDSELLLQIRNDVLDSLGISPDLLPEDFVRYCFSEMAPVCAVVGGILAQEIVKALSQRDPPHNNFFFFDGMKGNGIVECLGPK

| Structure (SMILES) | Percent Inhibition [1] [%] | IC50 [2] [nM] | inhibition at 0.111 µM (Concentration 0.111 μM) [%] | IC50 (class symbols A/B/C) [nM] | Percent Inhibition (Concentration 0.111 μM) |
| --- | --- | --- | --- | --- | --- |
| NS(=O)(=O)OC[C@H]1C[C@@H](Nc2ncncc2C(=O)c2cc([C@@H]3OCCCc4ccc(Cl)cc43)cs2)C[C@@H]1O (mixture of isomers) [I-314, [(1R,2S,4R)-4-{[5-({4-[(1R)-8-chloro-1,3,4,5-tetrahydro-2-benzoxepin-1-yl]-2-thienyl}carbonyl)pyrimidin-4-yl]amino}-2-hydroxycyclopentyl]methyl sulfamate and [(1R,2S,4R)-4-{[5-({4-[(1S)-8-chloro-1,3,4,5-tetrahydro-2-benzoxepin-1-yl]-2-thienyl}carbonyl)pyrimidin-4-yl]amino}-2-hydroxycyclopentyl]methyl sulfamate] | 95 | < 10 |  |  |  |
| CSc1cccc(Cc2csc(C(=O)c3cncnc3N[C@@H]3C[C@H](COS(N)(=O)=O)[C@@H](O)C3)c2)c1 [I-81, [(1R,2S,4R)-2-hydroxy-4-{[5-({4-[3-(methylsulfanyl)benzyl]-2-thienyl}carbonyl)pyrimidin-4-yl]amino}cyclopentyl]methyl sulfamate] |  |  | 98 | < 10 |  |
| Cc1sc(C(=O)c2cncnc2N[C@@H]2C[C@H](COS(N)(=O)=O)[C@@H](O)C2)cc1Cn1cc(Cl)cn1 [I-55, [(1R,2S,4R)-4-{[5-({4-[(4-chloro-1H-pyrazol-1-yl)methyl]-5-methyl-2-thienyl}carbonyl)pyrimidin-4-yl]amino}-2-hydroxycyclopentyl]methyl sulfamate] |  |  | 97 |  |  |
| NS(=O)(=O)OC[C@H]1C[C@@H](Nc2ncncc2C(=O)c2cc(Cc3ccc(C(F)(F)F)o3)cs2)C[C@@H]1O [I-119, [(1R,2S,4R)-2-Hydroxy-4-{(5-[(4-{[5-(trifluoromethyl)-2-furyl]methyl}-2-thienyl)carbonyl]pyrimidin-4-yl}amino)cyclopentyl]methyl sulfamate] |  |  | 96 | < 10 |  |
| NS(=O)(=O)OC[C@H]1C[C@@H](Nc2ncncc2C(=O)c2cc(CN3CC=CC3)cs2)C[C@@H]1O [I-219, {(1R,2S,4R)-4-[(5-{[4-(2,5-dihydro-1H-pyrrol-1-ylmethyl)-2-thienyl]carbonyl}pyrimidin-4-yl)amino]-2-hydroxycyclopentyl}methyl sulfamate] |  |  | 32 | 100 to 1000 |  |
| NS(=O)(=O)OC[C@H]1C[C@@H](Nc2ncncc2C(=O)c2cc([C@H]3OCC4(CC4)c4ccccc43)cs2)C[C@@H]1O (mixture of isomers) [I-281, [(1R,2S,4R)-2-hydroxy-4-{[5-({4-[(1′R)-1′H-spiro[cyclopropane-1,4′-isochromen]-1′-yl]-2-thienyl}carbonyl)pyrimidin-4-yl]amino}cyclopentyl]methyl sulfamate and [(1R,2S,4R)-2-hydroxy-4-{[5-({4-[(1′S)-1′H-spiro[cyclopropane-1,4′-isochromen]-1′-yl]-2-thienyl}carbonyl)pyrimidin-4-yl]amino}cyclopentyl]methyl sulfamate] | 98 | < 10 |  |  |  |
| C=C(C)[C@@H](O)c1coc(C(=O)c2cncnc2N[C@@H]2C[C@H](COS(N)(=O)=O)[C@@H](O)C2)c1.C=C(C)[C@H](O)c1coc(C(=O)c2cncnc2N[C@@H]2C[C@H](COS(N)(=O)=O)[C@@H](O)C2)c1 (mixture of isomers) [I-197, {(1R,2S,4R)-2-Hydroxy-4-[(5-{4-[(1S)-1-hydroxy-2-methylprop-2-en-1-yl]-2-furoyl}pyrimidin-4-yl)amino]cyclopentyl)methyl sulfamate and {(1R,2S,4R)-2-Hydroxy-4-[(5-{4-[(1R)-1-hydroxy-2-methylprop-2-en-1-yl]-2-furoyl}pyrimidin-4-yl)amino]cyclopentyl}methyl sulfamate] |  |  |  | 10 to 100 | 69 |
| CC(O)(c1cccc(Cl)c1)c1csc(C(=O)c2cncnc2NC2CC(O)C(COS(N)(=O)=O)C2)c1 (mixture of isomers) [I-5, [(1R,2S,4R)-4-{[5-({4-[(1R)-1-(3-chlorophenyl)-1-hydroxyethyl]-2-thienyl}carbonyl)pyrimidin-4-yl]amino}-2-hydroxycyclopentyl]methyl sulfamate and [(1R,2S,4R)-4-{[5-({4-[(1S)-1-(3-chlorophenyl)-1-hydroxyethyl]-2-thienyl}carbonyl)pyrimidin-4-yl]amino}-2-hydroxycyclopentyl]methyl sulfamate] |  |  |  | < 10 | 99 |
| NS(=O)(=O)OC[C@H]1C[C@@H](Nc2ncncc2C(=O)c2cc(C3NCCc4ccc(Cl)cc43)cs2)C[C@@H]1O (single isomer, unassigned) [I-274a, [(1R,2S,4R)-4-{[5-({4-[(1R)-7-chloro-1,2,3,4-tetrahydroisoquinolin-1-yl]-2-thienyl}carbonyl)pyrimidin-4-yl]amino}-2-hydroxycyclopentyl]methyl sulfamate or [(1R,2S,4R)-4-{[5-({4-[(1S)-7-chloro-1,2,3,4-tetrahydroisoquinolin-1-yl]-2-thienyl}carbonyl)pyrimidin-4-yl]amino}-2-hydroxycyclopentyl]methyl sulfamate] |  |  |  | < 10 | 98 |
| NS(=O)(=O)OC[C@H]1C[C@@H](Nc2ncncc2C(=O)c2cc([C@@H](O)c3cccc(Br)c3)c(Cl)s2)C[C@@H]1O (single isomer, unassigned) [I-16b, 1R,2S,4R)-4-{[5-({4-[(S)-(3-Bromophenyl)(hydroxy)methyl]-5-chloro-2-thienyl}carbonyl)pyrimidin-4-yl]amino}-2-hydroxycyclopentyl]methyl sulfamate or [(1R,2S,4R)-4-{[5-({4-[(R)-(3-Bromophenyl)(hydroxy)methyl]-5-chloro-2-thienyl}carbonyl)pyrimidin-4-yl]amino}-2-hydroxycyclopentyl]methyl sulfamate] |  |  |  | < 10 | 98 |
| N[C@H](c1cccc(Br)c1)c1cc(C(=O)c2cncnc2N[C@@H]2C[C@H](COS(N)(=O)=O)[C@@H](O)C2)sc1Cl (single isomer, unassigned) [I-22a, [(1R,2S,4R)-4-{[5-({4-[(R)-amino(3-bromophenyl)methyl]-5-chloro-2-thienyl}carbonyl)pyrimidin-4-yl]amino}-2-hydroxycyclopentyl]methyl sulfamate or [(1R,2S,4R)-4-{[5-({4-[(S)-amino(3-bromophenyl)methyl]-5-chloro-2-thienyl}carbonyl)pyrimidin-4-yl]amino}-2-hydroxycyclopentyl]methyl sulfamate] |  |  |  | 10 to 100 | 83 |
| CCc1cccc(Cc2cc(C(=O)c3cncnc3N[C@@H]3C[C@H](COS(N)(=O)=O)[C@@H](O)C3)sc2C)c1 [I-111, {(1R,2S,4R)-4-[(5-{[4-(3-ethylbenzyl)-5-methyl-2-thienyl]carbonyl}pyrimidin-4-yl)amino]-2-hydroxycyclopentyl}methyl sulfamate] |  |  | 98 | < 10 |  |
| NS(=O)(=O)OCC1CC(Nc2ncncc2C(=O)c2cc(C(O)c3cccc(Br)c3)cs2)CC1O (mixture of isomers) [I-17, [(1R,2S,4R)-4-{[5-({4-[(R)-(3-bromophenyl)(hydroxy)methyl]-2-thienyl}carbonyl)pyrimidin-4-yl]amino}-2-hydroxycyclopentyl]methyl sulfamate and [(1R,2S,4R)-4-{[5-({4-[(S)-(3-bromophenyl)(hydroxy)methyl]-2-thienyl}carbonyl)pyrimidin-4-yl]amino}-2-hydroxycyclopentyl]methyl sulfamate] |  |  |  | < 10 | 99 |
| CCc1ccccc1OCc1csc(C(=O)c2cncnc2N[C@@H]2C[C@H](COS(N)(=O)=O)[C@@H](O)C2)c1 [I-182, [(1R,2S,4R)-4-{[5-({4-[(2-ethylphenoxy)methyl]-2-thienyl}carbonyl)pyrimidin-4-yl]amino}-2-hydroxycyclopentyl]methyl sulfamate] |  |  | 82 | 10 to 100 |  |
| NS(=O)(=O)OC[C@H]1C[C@@H](Nc2ncncc2C(=O)c2cc([C@@H]3CCc4ccc(Cl)cc43)cs2)C[C@@H]1O (single isomer, unassigned) [I-349b, [(1R,2S,4R)-4-{[5-({4-[(1R)-6-chloro-2,3-dihydro-1H-inden-1-yl]-2-thienyl}carbonyl)pyrimidin-4-yl]amino}-2-hydroxycyclopentyl]methyl sulfamate or [(1R,2S,4R)-4-{[5-({4-[(1S)-6-chloro-2,3-dihydro-1H-inden-1-yl]-2-thienyl}carbonyl)pyrimidin-4-yl]amino}-2-hydroxycyclopentyl]methyl sulfamate] | 58 | 10 to 100 |  |  |  |
| CN1CCc2ccc(Cl)cc2[C@@H]1c1cc(C(=O)c2cncnc2N[C@@H]2C[C@H](COS(N)(=O)=O)[C@@H](O)C2)sc1Cl (single isomer, unassigned) [I-311b, [(1R,2S,4R)-4-{[5-({5-chloro-4-[(1R)-7-chloro-2-methyl-1,2,3,4-tetrahydroisoquinolin-1-yl]-2-thienyl}carbonyl)pyrimidin-4-yl]amino}-2-hydroxycyclopentyl]methyl sulfamate or [(1R,2S,4R)-4-{[5-({5-chloro-4-[(1S)-7-chloro-2-methyl-1,2,3,4-tetrahydroisoquinolin-1-yl]-2-thienyl}carbonyl)pyrimidin-4-yl]amino}-2-hydroxycyclopentyl]methyl sulfamate] | 96 | < 10 |  |  |  |
| NS(=O)(=O)OC[C@H]1C[C@@H](Nc2ncncc2C(=O)c2cc([C@H]3OCCc4ccc(Cl)cc43)cs2)C[C@@H]1O (mixture of isomers) [I-261, [(1R,2S,4R)-4-{[5-({4-[(1R)-7-chloro-3,4-dihydro-1H-isochromen-1-yl]-2-thienyl}carbonyl)pyrimidin-4-yl]amino}-2-hydroxycyclopentyl]methyl sulfamate and [(1R,2S,4R)-4-{[5-({4-[(1S)-7-chloro-3,4-dihydro-1H-isochromen-1-yl]-2-thienyl}carbonyl)pyrimidin-4-yl]amino}-2-hydroxycyclopentyl]methyl sulfamate] |  |  |  | < 10 | 99 |
